Data: patent US10662204B2 (PFIZER INC., priority 2018, dated 2020)

Key:
KRAS G12C = KRAS G12C (Homo sapiens, UniProt P01116, G12C); assay: Cell Activity Assay: accumulation of GDP-bound KRAS G12C in MIAPaCa-2 cells (Raf-1 RBD capture, MSD readout); type: cell-based; parameters: endogenous in cells; host or cells: MIAPaCa-2; conditions: 6 hours, assay limit is 30.00
Outline: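 IC50 came from a 4-parameter fit of Ras signal normalized between DMSO and full-inhibition controls. Readout: lysate GTP-Ras bound to immobilized Raf-1 RBD, quantified with pan-Ras antibody and MSD electrochemiluminescence. Lysates derived from MIAPaCa-2 cells treated 6 h with serially diluted compound, 0.3% DMSO.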

[1] = target: T1, GDP-loaded KRAS (1-169) G12C, C51S, C80L, C118S (Homo sapiens, UniProt P01116, C118S/C51S/C80L/G12C); assay: Mass Spectrometry Reactivity Assay (MSRA): covalent adduct of compound and KRAS G12C, Percent Modification; type: binding; conditions: for MSRA (% modification) 5.0 μM 0.017 hr / MSRA (% modification) 5.0 μM 0.25 hr: 5.0 μM compound
T1 construct: GDP-loaded KRAS (1-169) G12C, C51S, C80L, C118S
Outline: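 Covalent labelling is measured by intact mass: deconvoluted modified and unmodified peak intensities yield percent modification. Compound, usually 5 μM or 10 μM final, reacts at room temperature with 5 μM GDP-bound KRAS G12C (1-169, C51S/C80L/C118S) in Hepes pH 7.5/NaCl/glycerol, sampled at 1, 15, 30, 60 min.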

Row | Structure (SMILES) | IC50 (KRAS G12C) [µM] | MSRA (% modification) 5.0 μM 0.017 hr [1] [%] | MSRA (% modification) 5.0 μM 0.25 hr [1] [%] | MSRA (% modification) 10 μM 0.25 hr ([1]; 10 μM compound) [%] | MSRA (% modification) 10 μM 0.50 hr ([1]; 10 μM compound, 0.50 hr) [%]
1 | C=CC(=O)N1CCN(c2nc(O[C@@H]3CN(C)C[C@H]3OC)nc3c(Oc4c(Cl)c(F)cc5[nH]ncc45)nccc23)CC1 [Example 10I, 1-[4-(8-[(5-chloro-6-fluoro-1H-indazol-4-yl)oxy]-2-{[(3R,4R)-4-methoxy-1-methylpyrrolidin-3-yl]oxy}pyrido[3,4-d]pyrimidin-4-yl)piperazin-1-yl]prop-2-en-1-one] | 0.022 | 70 | 82 |  | 
2 | C=CC(=O)N1CCN(c2nc(OC[C@@H]3CCCN3C)nc3c(Oc4c(C)c(Cl)cc5[nH]ncc45)nccc23)CC1 [Example 13B, 1-[4-(8-[(6-chloro-5-methyl-1H-indazol-4-yl)oxy]-2-{[(2S)-1-methylpyrrolidin-2-yl]methoxy}pyrido[3,4-d]pyrimidin-4-yl)piperazin-1-yl]prop-2-en-1-one] | 0.16 |  | 19 | 74 | 
3 | C=CC(=O)N1CCN(c2nc(OCc3cscn3)nc3c(Oc4c(C)ccc5[nH]ncc45)cccc23)CC1 [Example 23F, 1-(4-{8-[(5-methyl-1H-indazol-4-yl)oxy]-2-(1,3-thiazol-4-ylmethoxy)quinazolin-4-yl}piperazin-1-yl)prop-2-en-1-one] | 0.944 |  | 55 | 66 | 
4 | C=CC(=O)N1CCN(c2nc(N3CC(N(C)C)C3)nc3c(Oc4c(Cl)c(F)cc5[nH]ncc45)nccc23)CC1 [Example 02H, 1-(4-{8-[(5-chloro-6-fluoro-1H-indazol-4-yl)oxy]-2-[3-(dimethylamino)azetidin-1-yl]pyrido[3,4-d]pyrimidin-4-yl}piperazin-1-yl)prop-2-en-1-one] | 0.505 |  |  | 53 | 
5 | C=CC(=O)N1CCN(c2ncnc3c(Oc4c(Cl)c(F)cc5[nH]ncc45)nc(Cl)cc23)C[C@H]1C [Example 37A, 1-[(2R)-4-{6-chloro-8-[(5-chloro-6-fluoro-1H-indazol-4-yl)oxy]pyrido[3,4-d]pyrimidin-4-yl}-2-methylpiperazin-1-yl]prop-2-en-1-one] | 0.622 |  |  | 63 | 
6 | C=CC(=O)N1CCN(c2nc(O[C@@H]3COC[C@H]3N(C)C)nc3c(Oc4c(Cl)c(F)cc5[nH]ncc45)nccc23)CC1 (racemic) [Example 23I, rac-1-[4-(8-[(5-chloro-6-fluoro-1H-indazol-4-yl)oxy]-2-{[(3S,4R)-4-(dimethyl-amino)oxolan-3-yl]oxy}pyrido [3,4-d]pyrimidin-4-yl)piperazin-1-yl]prop-2-en-1-one] | 0.348 | 12 |  |  | 
7 | C=CC(=O)N1CCN(c2nc(Oc3cccc4c3CCN(C)C4)nc3c(Oc4c(C)ccc5[nH]ncc45)nccc23)CC1 [Example 38I, 1-(4-{8-[(5-methyl-1H-indazol-4-yl)oxy]-2-[(2-methyl-1,2,3,4-tetrahydro-isoquinolin-5-yl)oxy]pyrido [3,4-d]pyrimidin-4-yl}piperazin-1-yl)prop-2-en-1-one] | 0.055 | 55 |  |  | 
8 | C=CC(=O)N1CCN(c2nc(OC[C@H]3CCC(=O)N3)nc3c(Oc4c(C)ccc5[nH]ncc45)cccc23)CC1 [Example 10F, (5R)-5-[({4-(4-acryloylpiperazin-1-yl)-8-[(5-methyl-1H-indazol-4-yl)oxy]quinazolin-2-yl}oxy)methyl]pyrrolidin-2-one] | 6.07 |  |  | 53 | 65
9 | C=CC(=O)N1CCN(c2nc(Oc3cccc4c3CCN(CC)C4)nc3c(Oc4c(C)ccc5[nH]ncc45)nccc23)CC1 [Example 31I, 1-(4-{2-[(2-ethyl-1,2,3,4-tetrahydro-isoquinolin-5-yl)oxy]-8-[(5-methyl-1H-indazol-4-yl)oxy]pyrido [3,4-d]pyrimidin-4-yl}piperazin-1-yl)prop-2-en-1-one] | 0.041 | 31 |  |  | 
10 | C=CC(=O)N1CCN(c2nc(O[C@@H]3CN(C)C[C@H]3OC)nc3c(Oc4c(C)ccc5[nH]ncc45)nccc23)CC1 [Example 28I] | 1 | 11 |  |  | 
